Results on 34 compounds are retold here after publication PMC12735704, “Synthesis of Substituted 1H-Phenalen-1-ones and Nitrogen-Containing Heterocyclic Analogues as Potential Anti-Plasmodial Agents” (Molecules, 2025).

Assay [1] deals with Chloroquine-resistant P. falciparum FCR3. Put plainly: In vitro antimalarial assay (parasitemia by blood smear, 48 h with compound). Type of assay: cell-based, Plasmodium falciparum. As to conditions: mean ± SD of three determinations. How it is done:
• In vitro antimalarial assay.
FCR-3 chloroquine-resistant strain of P. falciparum (kindly provided by Dr. Fandeur, Pasteur Institute, Cayenne, France) was cultured on glucose-enriched RPMI 1640 medium, supplemented with 10% human serum at 37 °C. After 24 h of incubation at 37 °C, the medium was replaced by fresh medium supplemented with the compound to be evaluated (initial a screening used a concentration of 10 μg/mL), and incubation was continued for a further 48 h. On the third day of the test, a blood smear was taken from each well, and parasitemia was calculated for each concentration of sample compared to the control. Chloroquine (0.1 μg/mL) was used as a positive control. IC50 values were determined graphically by plotting concentrations (0.01–10 μg/mL) versus percent inhibition. All tests were performed in triplicate.

In assay [2] the test system is MCF-7 cells. Description: Cytotoxicity study by MTT proliferation assay. Particulars: 72 h; for inhibition at 10 µM: Homo sapiens, MCF7, inhibition of cell growth, read-out: MCF-7 % Inh ± DS (10 μM); for MCF-7 % Inh ± DS (10 μM): inhibition of cell growth. The class given is cell-based. How it is done:
• Cytotoxicity study by MTT proliferation assay. MCF-7 cells were purchased from ATCC (Manassas, VA, USA) and cultured in DMEN containing 10% FBS. For 3-(4,5-dimethylthiazol-2-yl)-2,5-diphenyltetrazolium (MTT) (Sigma–Aldrich, St. Louis, MO, USA) analysis, cells were plated in 96-well plates at 10,000 cells/well. Twenty-four hours after plating, vehicle (0.1% DMSO, final concentration) or compound was added to cells at indicated doses. Seventy-two hours following compound addition, MTT was added to each well (0.5 mg/mL, final concentration) and plates were incubated for an additional 3 h at 37 °C. Medium was then aspirated and the formazan product was solubilized in SDS–HCl (20% SDS; HCl 0.02 M). The absorbance of each well was measured at 570 nm using a microplate reader (Sigma–Aldrich, St. Louis, MO, USA).

Assay [3] has as its system Chloroquine-resistant P. falciparum FCR3. Description: In vitro antimalarial assay (parasitemia by blood smear, 48 h with compound). Type of assay: cell-based, Plasmodium falciparum. Particulars: for antiplasmodium activity (in words): FCR3 strain, tested up to 10 µM.
The test system of assay [4] is Plasmodium falciparum. Further details: method as in PMID 23985373. As to conditions: previously tested compounds; read-out: IC50 (antiplasmodial activity, previously tested compounds); cited from earlier work.
Where [5] appears, read: Plasmodium falciparum, FCR3, FCR3 strain.

Like-named read-outs stand apart in the source and are kept apart here.

One may read the IC50 as the concentration that inhibits the measured activity by half. `O=C1C(I)=Cc2cccc3cccc1c23` [Compound 3, 2-Iodo-1H-phenalen-1-one]: the IC50 in assay [1] (setting [5]) was more than 10 µM. In addition, the inhibition at 10 µM in assay [2] stood at 4 ± 0.4%. Besides, the “antiplasmodium activity (in words)” value in assay [3] is recorded as “significant loss in antiplasmodium activity”.

In the case of `O=C1C=Cc2cccc3ccc(-c4ccccc4)c1c23` [Compound 9, 9-Phenyl-1H-phenalen-1-one], the IC50 in assay [1] (setting [5]) is more than 10 µM. Also, the inhibition at 10 µM in assay [2] stood at 6 ± 0.1%.

Take `CCOC(=O)c1cc2cccc3c2c(c1O)C(=O)C=C3` [Compound 33, ethyl 9-hydroxy-1-oxo-1H-phenalene-8-carboxylate]: the IC50 in assay [1] (setting [5]) is more than 10 µM. Besides, the inhibition at 10 µM in assay [2] was found to be 0%. The “antiplasmodium activity (in words)” value in assay [3] is recorded as “lost”.

With `O=C1C(c2ccc(F)cc2)=Cc2cccc3cccc1c23` [Compound 6, 2-(4-fluorophenyl)-1H-phenalen-1-one], the IC50 in assay [1] (setting [5]) is more than 10 µM. In addition, the inhibition at 10 µM in assay [2] was 10 ± 2%.

On to `O=C1C=Cc2cccc3ccc(Nc4ccc(Cl)cc4)c1c23` [Compound 17, 9-[(4-chlorophenyl)amino]-1H-phenalen-1-one], for which the IC50 in assay [1] (setting [5]) was more than 10 µM. For the same compound, the inhibition at 10 µM in assay [2] worked out at 12 ± 0.3%.

With `O=C1C(Nc2ncccn2)=Cc2cccc3cccc1c23` [Compound 25, 2-(pyrimidin-2-ylamino)-1H-phenalen-1-one], the IC50 in assay [1] (setting [5]) was more than 10 µM. Further, the inhibition at 10 µM in assay [2] came to 16 ± 0.9%.

`O=C1C=Cc2c(O)ccc3ccc(O)c1c23` [Compound 30, 4,9-dihydroxy-1H-phenalen-1-one]: in assay [1] (setting [5]), the half-maximal inhibitory concentration (IC50) was more than 10 µM. Further, the inhibition at 10 µM in assay [2] worked out at 16 ± 0.4%. Moreover, the “antiplasmodium activity (in words)” value in assay [3] is reported as “diminished antiplasmodium activity”.

Regarding `O=C1C(c2ccccc2)=Cc2cccc3cccc1c23` [Compound 4, 2-phenyl-1H-phenalen-1-one], in assay [1] (setting [5]), the IC50 is more than 10 µM. Moreover, the inhibition at 10 µM in assay [2] is 14 ± 0.8%. Further, the “antiplasmodium activity (in words)” value in assay [3] is “significant loss in antiplasmodium activity”.

For `O=C1C=Cc2cccc3ccc(O)c1c23` [Compound 9-OH, 9-hydroxy-1H-phenalen-1-one], the half-inhibitory concentration (IC50) in assay [1] (FCR3 strain) is 0.72 ± 0.06 µM; in assay [1] (setting [5]) it was less than 1 µM. The inhibition at 10 µM in assay [2] was 6 ± 0.7%. Moreover, the “antiplasmodium activity (in words)” value in assay [3] is “sub-micromolar activity”.

Regarding `O=C1C(Nc2ccc(Cl)cc2)=Cc2cccc3cccc1c23` [Compound 22, 2-[(4-chloroanilino]-1H-phenalen-1-one], the IC50 in assay [1] (setting [5]) was more than 10 µM. The inhibition at 10 µM in assay [2] is 42 ± 0.1%.

As to `COc1ccc(Nc2ccc3cccc4c3c2C(=O)C=C4)cc1` [Compound 15, 9-[(4-methoxyphenyl)amino]-1H-phenalen-1-one], the IC50 in assay [1] (setting [5]) was more than 10 µM. Moreover, the inhibition at 10 µM in assay [2] was 1 ± 0.4%.

As for `O=C1C=Cc2cccc3ccc(-c4ccccn4)c1c23` [Compound 1c], in assay [4], the IC50 is 21 µM.

As for `N#CC1=Cc2cccc3cccc(c23)C1=O` [Compound 20, 1-oxo-1H-phenalene-2-carbonitrile], the IC50 in assay [1] (setting [5]) was more than 10 µM. Besides, the inhibition at 10 µM in assay [2] came to 11 ± 0.2%. Moreover, in assay [3], the “antiplasmodium activity (in words)” value is given as “neither the 2-cyano compound (20) nor the 9-amido compound (19) were active, even at 10 µM”.

With `O=C1C=Cc2cccc3ccc(-c4ccc(F)cc4)c1c23` [Compound 11, 9-(4-fluorophenyl)-1H-phenalen-1-one], the IC50 in assay [1] (setting [5]) is more than 10 µM. For the same compound, in assay [2], the inhibition at 10 µM is 8 ± 0.2%.

Consider `COc1ccc(NC2=Cc3cccc4cccc(c34)C2=O)cc1` [Compound 23, 2-(4-methoxyanilino)-1H-phenalen-1-one], for which the IC50 in assay [1] (setting [5]) was more than 10 µM. In assay [2], the inhibition at 10 µM came to 12 ± 0.6%.

For the compound `N#Cc1ccc(C2=Cc3cccc4cccc(c34)C2=O)cc1` [Compound 5, 4-(1-oxo-1H-phenalen-2-yl)benzonitrile], the IC50 in assay [1] (setting [5]) was more than 10 µM. For the same compound, the inhibition at 10 µM in assay [2] was found to be 12 ± 0.3%.

`Cc1cccc(C)c1Nc1ccc2cccc3c2c1C(=O)C=C3` [Compound 16, 9-[(2,6-dimethylphenyl)amino]-1H-phenalen-1-one]: in assay [1] (setting [5]), the IC50 was more than 10 µM. Also, in assay [2], the inhibition at 10 µM was determined as 0%.

Consider `COc1ccc(-c2ccc3cccc4c3c2C(=O)C=C4)cc1` [Compound 12, 9-(4-methoxyphenyl)-1H-phenalen-1-one], for which the IC50 in assay [1] (setting [5]) is more than 10 µM. For the same compound, the inhibition at 10 µM in assay [2] was determined as 15 ± 0.3%.

For the compound `O=C(O)c1cc2cccc3c2c(c1O)C(=O)C=C3` [Compound 34, 9-hydroxy-1-oxo-1H-phenalene-8-carboxylic acid], the IC50 in assay [1] (setting [5]) was more than 10 µM. Moreover, the inhibition at 10 µM in assay [2] turned out to be 0%. The “antiplasmodium activity (in words)” value in assay [3] was “lost”.

For the compound `COc1ccc2c3c(cncc13)C(=O)C=C2` [Compound 36, 9-methoxy-4H-benzo[de]isoquinolin-4-one], the IC50 in assay [1] (setting [5]) is more than 10 µM. Moreover, the inhibition at 10 µM in assay [2] was found to be 5 ± 0.9%.

As to `O=C1C(c2ccoc2)=Cc2cccc3cccc1c23` [Compound 7, 2-(3-furyl)-1H-phenalen-1-one], the IC50 in assay [1] (setting [5]) is more than 10 µM. Besides, the inhibition at 10 µM in assay [2] stood at 22 ± 0.2%. Besides, the “antiplasmodium activity (in words)” value in assay [3] is “significant loss in antiplasmodium activity”.

Consider `O=C1C=Cc2cccc3cccc1c23` [Compound 1, 1H-phenalen-1-one], for which the IC50 in assay [1] (setting [5]) is 2.46 ± 0.08 µM. Moreover, the inhibition at 10 µM in assay [2] came to 16 ± 0.4%.

Consider `COc1ccc(C2=CC(=O)c3cccc4cccc2c34)cc1` [Compound 1d], for which the IC50 in assay [4] was 2.1 µM.

`COc1cccc2c1C(=O)c1c(O)c3c(c(O)c1C2=O)C[C@@](O)(C(=O)CO)C[C@@H]3O[C@H]1C[C@H](N)[C@H](O)[C@H](C)O1` [Adriamycin, reference compound]: the inhibition at 10 µM in assay [2] stood at 63 ± 4.7%.

Take “2-((2,6-dimethylphenyl)amino)-2,3-dihydro-1H-phenalen-1-one [Compound 24]”: the IC50 in assay [1] (FCR3 strain) was more than 10 µM. In assay [2], the “MCF-7 % Inh ± DS (10 μM)” value is 7 ± 0.5%.

As for `N#Cc1ccc2cccc3c2c1C(=O)C=C3` [Compound 18, 1-oxo-1H-phenalene-9-carbonitrile], in assay [2], the inhibition at 10 µM worked out at 32 ± 0.5%. The “antiplasmodium activity (in words)” value in assay [3] was “most potent compound”.

For the compound `NC(=O)c1ccc2cccc3c2c1C(=O)C=C3` [Compound 19, 1-oxo-1H-phenalene-9-carboxamide], in assay [1] (setting [5]), the IC50 is more than 10 µM. For the same compound, the inhibition at 10 µM in assay [2] is 0%. The “antiplasmodium activity (in words)” value in assay [3] is reported as “neither the 2-cyano compound (20) nor the 9-amido compound (19) were active, even at 10 µM”.

As for `COc1cccc(-c2ccc3cccc4c3c2C(=O)C=C4)c1` [Compound 13, 9-(3-methoxyphenyl)-1H-phenalen-1-one], the IC50 in assay [1] (setting [5]) was more than 10 µM. In assay [2], the inhibition at 10 µM was 12 ± 0.1%.

In the case of `COc1ccccc1-c1ccc2cccc3c2c1C(=O)C=C3` [Compound 14, 9-(2-methoxyphenyl)-1H-phenalen-1-one], the IC50 in assay [1] (setting [5]) is more than 10 µM. Also, the inhibition at 10 µM in assay [2] came to 15 ± 0.2%.

In the case of `CCN(CC)CCCC(C)Nc1ccnc2cc(Cl)ccc12` (centres unmarked) [Chloroquine, reference compound], the IC50 in assay [3] (Plasmodium falciparum, FCR3, read-out: Chloroquine-Resistant P. falciparum FCR3 IC50 ± SD) is 0.16 ± 0.02 µM.

On to `N#Cc1ccc(-c2ccc3cccc4c3c2C(=O)C=C4)cc1` [Compound 10, 4-(1-oxo-1H-phenalen-9-yl)benzonitrile], for which, in assay [1] (setting [5]), the IC50 was more than 10 µM. Moreover, the inhibition at 10 µM in assay [2] came to 10 ± 1%. The “antiplasmodium activity (in words)” value in assay [3] is listed as “detrimental to activity”.

Take `O=C1C=Cc2cccc3cncc1c23` [Compound 35, 4H-benzo[de]isoquinolin-4-one]: the IC50 in assay [1] (setting [5]) was more than 10 µM. Further, the inhibition at 10 µM in assay [2] was determined as 7 ± 0.1%. In addition, the “antiplasmodium activity (in words)” value in assay [3] was “complete loss of activity”.

As to “N-(1-oxo-1H-phenalene-2-yl)carboxamide [Compound 21]”, the IC50 in assay [1] (FCR3 strain) is more than 10 µM. Further, the “MCF-7 % Inh ± DS (10 μM)” value in assay [2] is given as 8 ± 0.3%.

Consider `O=C1C(Br)=Cc2cccc3cccc1c23` [Compound 2, 2-Bromo-1H-phenalen-1-one], for which the IC50 is 0.7 ± 0.04 µM in assay [1] (FCR3 strain) and less than 1 µM in assay [1] (setting [5]). Further, in assay [2], the inhibition at 10 µM worked out at 2 ± 0.7%.
